Calls of active or inactive are those of the source.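 How the source made its calls: active means summed score of at least 50 from binding left at 10 µM, EC50 band and curve drop size; inactive means the rest.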
These compounds were tested against Estrogen receptor beta (Homo sapiens) (UniProt Q92731) (assay: competitive ligand binding to estrogen receptor beta – cell-based, Cos7 ERbeta-GFP, E2-Alexa633, flow cytometry, dose response (AID 1221)). Conditions: not given.
Sequence of Estrogen receptor beta (Homo sapiens) (Q92731 whole entry, looked up): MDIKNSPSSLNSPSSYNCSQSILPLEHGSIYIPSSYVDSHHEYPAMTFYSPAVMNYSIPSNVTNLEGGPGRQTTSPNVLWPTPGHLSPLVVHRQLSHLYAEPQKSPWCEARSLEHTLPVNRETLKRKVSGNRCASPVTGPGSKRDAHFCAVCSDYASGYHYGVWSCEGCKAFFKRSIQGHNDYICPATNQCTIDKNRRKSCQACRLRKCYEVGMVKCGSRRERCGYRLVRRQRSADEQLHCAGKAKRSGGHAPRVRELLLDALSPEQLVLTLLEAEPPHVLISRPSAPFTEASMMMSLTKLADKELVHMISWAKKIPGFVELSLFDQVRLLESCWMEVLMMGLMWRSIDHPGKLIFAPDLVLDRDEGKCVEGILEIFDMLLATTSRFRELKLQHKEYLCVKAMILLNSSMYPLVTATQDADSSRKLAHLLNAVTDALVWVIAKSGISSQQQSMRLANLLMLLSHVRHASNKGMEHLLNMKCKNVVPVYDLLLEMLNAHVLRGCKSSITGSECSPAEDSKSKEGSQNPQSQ

**Q.** For Oc1ccc(-c2nc3ccc4ccccc4c3c3c2CCC3)cc1O, which EC50 is on record?
**A.** The EC50 was > 10 µM (inactive).

Same assay, conditions: at 10 µM (top of the series)

**Q.** COc1nc(-c2ccc(Cl)cc2)ccc1-c1noc(-c2ccco2)n1 was tested. Which “percent ligand binding remaining” value did it give?
**A.** Its value is “inactive”.

**Q.** For CCCCCCNC(=O)c1cc(-c2ccco2)nc2ccccc12, which “percent ligand binding remaining” value is on record?
**A.** The value was “inactive”.

**Q.** CCNC(=O)c1ccc2c(c1)C1C3CCC(C3)C1C(c1ccccc1)N2 (stereo not drawn) was tested. Which “percent ligand binding remaining” value did it give?
**A.** Its value is “inactive”.

**Q.** With CC(=O)Nc1ccc(OC(=O)CC2SC(=O)NC2=O)cc1 (stereo not drawn) as the compound, how does the “percent ligand binding remaining” value read?
**A.** The value was “inactive”.

**Q.** O=C1/C(=C\c2ccco2)SC(=S)N1c1ccc(O)cc1 was tested. Which “percent ligand binding remaining” value did it give?
**A.** Its value is “inactive”.

**Q.** How did the “percent ligand binding remaining” value turn out when N=C1C(c2nc3ccccc3[nH]2)=C(O)CN1c1ccc(CC(=O)O)cc1 was run?
**A.** Its value is “inactive”.

**Q.** For CC(=O)c1ccc2c(c1)C1C=CCC1C(c1ccc(S(=O)(=O)N3CCOCC3)cc1)N2 (stereo not drawn), which “percent ligand binding remaining” value is on record?
**A.** Its value is “inactive”.

**Q.** COc1ccc(NC(=O)C(c2ccccc2)N(C)C(=O)c2ccc(=O)[nH]c2)cc1 (stereo not drawn) was tested. Which “percent ligand binding remaining” value did it give?
**A.** The value was “inactive”.

**Q.** How did the “percent ligand binding remaining” value turn out when Cc1ccc(-n2c(=O)c(C#N)cc3c(=O)n4cccc(C)c4nc32)cc1 was run?
**A.** Its value is “inactive”.

**Q.** COc1ccc(C(=O)N/N=C(\C)c2ccc3c(c2)C2C=CCC2C(c2ccccc2)N3)cc1 (stereo not drawn) was tested. Which percent ligand binding remaining did it give?
**A.** Its percent ligand binding remaining is 32.7%.

**Q.** Which “percent ligand binding remaining” value does the source give for O=C(Cc1cccs1)Nc1ccc(S(=O)(=O)Nc2ncccn2)cc1 here?
**A.** The value was “inactive”.

**Q.** How did the percent ligand binding remaining turn out when C/C=C(/C(=C/C)c1ccc(O)cc1)c1ccc(O)cc1 was run?
**A.** The percent ligand binding remaining was 45.1%.

**Q.** Which “percent ligand binding remaining” value does the source give for COc1ccc(/C=N/NC(=O)c2nc(-c3ccccc3)cc(-c3ccccc3)n2)cc1O here?
**A.** Its value is “inactive”.

**Q.** With O=C1NC(c2ccc(Br)cc2)Nc2sc3c(c21)CCC3 (stereo not drawn) as the compound, how does the “percent ligand binding remaining” value read?
**A.** Its value is “inactive”.

**Q.** How did the “percent ligand binding remaining” value turn out when Cc1cc(C(=O)Nc2sc3c(c2C#N)CCC3)no1 was run?
**A.** Its value is “inactive”.

**Q.** For O=C(O)c1ccc2c(c1)C1C(Cl)C(Sc3ccccc3[N+](=O)[O-])CC1C(c1cccc([N+](=O)[O-])c1)N2 (stereo not drawn), which “percent ligand binding remaining” value is on record?
**A.** The value was “inactive”.

**Q.** Which “percent ligand binding remaining” value does the source give for Cc1cc(C)c2c(c1)NC(c1cc3c(cc1Br)OCO3)C1CC=CC21 (stereo not drawn) here?
**A.** The value was “inactive”.

**Q.** Cc1nn(-c2ccccc2)c(/N=C/c2ccc(O)cc2)c1-c1ccccc1 was tested. Which “percent ligand binding remaining” value did it give?
**A.** The value was “inactive”.

**Q.** COc1cccc(C2Nc3c(F)cc(Br)cc3C3C=CCC32)c1OC (stereo not drawn) was tested. Which “percent ligand binding remaining” value did it give?
**A.** Its value is “inactive”.

**Q.** Cn1ccnc1SCC(=O)Nc1ccc2nc(SCC(=O)NC3CC3)sc2c1 was tested. Which “percent ligand binding remaining” value did it give?
**A.** Its value is “inactive”.

**Q.** For CCc1nc2sc3ccccc3c(=O)c2c(=O)n1Cc1ccco1, which “percent ligand binding remaining” value is on record?
**A.** The value was “inactive”.

**Q.** With Cc1cc([N+](=O)[O-])c2c(c1C)C1C=CCC1C(c1ccccn1)N2 (stereo not drawn) as the compound, how does the “percent ligand binding remaining” value read?
**A.** The value was “inactive”.

**Q.** Which “percent ligand binding remaining” value does the source give for Oc1ccc(-c2nc(-c3ccc(O)c(O)c3)cs2)cc1 here?
**A.** Its value is “inactive”.

**Q.** CCn1c(=NC(=O)c2ccc(N3C(=O)CCC3=O)cc2)sc2c(OC)ccc(OC)c21 was tested. Which “percent ligand binding remaining” value did it give?
**A.** Its value is “inactive”.

**Q.** Which “percent ligand binding remaining” value does the source give for Cc1cc(C)cc(OCC(=O)Nc2ccc(N3CCCC3)cc2)c1 here?
**A.** Its value is “inactive”.

**Q.** For Cc1nnc(SCC(=O)NC(=O)NCc2ccco2)n1Cc1ccccc1, which “percent ligand binding remaining” value is on record?
**A.** Its value is “inactive”.

**Q.** For O=S(=O)(NCCc1csc(-c2cccnc2)n1)c1ccc(Cl)s1, which “percent ligand binding remaining” value is on record?
**A.** Its value is “inactive”.

**Q.** Which “percent ligand binding remaining” value does the source give for C[C@]12CC[C@@H]3c4ccc(O)cc4[C@@H](O)C[C@H]3[C@@H]1CC[C@@H]2O here?
**A.** The value was “inactive”.

**Q.** For C[C@H]1CCC[C@@H](O)CCC/C=C/c2cc(O)cc(O)c2C(=O)O1, which “percent ligand binding remaining” value is on record?
**A.** Its value is “inactive”.

**Q.** With COc1cccc(NS(=O)(=O)c2ccc3c(c2)C2C=CCC2C(c2ccc(C(=O)O)cc2)N3)c1 (stereo not drawn) as the compound, how does the “percent ligand binding remaining” value read?
**A.** The value was “inactive”.

**Q.** With CCC(=O)Oc1ccc(/C(CC)=C(\CC)c2ccc(OC(=O)CC)cc2)cc1 as the compound, how does the percent ligand binding remaining read?
**A.** Its percent ligand binding remaining is 32.1%.

**Q.** For Brc1cc2c(cc1C1Nc3ccccc3C3C=CCC31)OCO2 (stereo not drawn), which “percent ligand binding remaining” value is on record?
**A.** The value was “inactive”.

From PubChem BioAssay AID1221 (NMMLSC, 2008)
